The record followed here is US20230069886A1, “AROMATIC SULPHONAMIDES DERIVATIVES THAT INHIBITS PDI A3, THEIR SYNTHESIS AND USE” (Uniwersytet Jagiellonski, priority 2020, published 2023).

One data set has as its target T1, PDI A3 (Homo sapiens, UniProt P30101).
T1 construct: purchased Mybiosource; host or cells: E. coli
T1 sequence (P30101 25-505): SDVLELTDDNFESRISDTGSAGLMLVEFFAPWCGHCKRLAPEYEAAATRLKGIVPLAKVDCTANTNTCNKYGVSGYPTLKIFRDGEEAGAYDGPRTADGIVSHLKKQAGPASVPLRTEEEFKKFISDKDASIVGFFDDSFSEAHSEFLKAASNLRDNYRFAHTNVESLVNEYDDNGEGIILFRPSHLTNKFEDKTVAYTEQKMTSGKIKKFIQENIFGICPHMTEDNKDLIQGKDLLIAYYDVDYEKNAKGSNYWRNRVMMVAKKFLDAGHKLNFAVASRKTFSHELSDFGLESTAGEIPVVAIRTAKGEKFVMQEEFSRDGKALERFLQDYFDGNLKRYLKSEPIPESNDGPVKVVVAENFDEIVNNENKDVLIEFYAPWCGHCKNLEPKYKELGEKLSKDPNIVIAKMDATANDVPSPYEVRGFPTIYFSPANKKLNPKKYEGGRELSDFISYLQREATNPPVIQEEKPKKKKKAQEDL
As to the kind of experiment: PDI A3 inhibition, insulin turbidimetric assay. Format: biochemical. Conditions: 10 ug/ml PDI A3, incubated 60 min at 37° C., turbidity at 650 nm; read-out: Inhibition of PDI A3 (EC 50). Summed up: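 Recombinant E. coli-expressed PDIA3 (10 ug/ml) was preincubated with compound for 60 min at 37° C in 0.1 mM phosphate buffer pH 7.6, 1 mM EDTA, 0.087 mM DTT. Reaction was started with insulin (0.15 mM final) and DTT (0.174 mM final). Insulin reduction was followed as turbidity at 650 nm over 120-s recordings, against reference samples without PDI.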

For a further data set, the system named is HT-29. In words: MTT antiproliferative assay, 72 h, HT-29. Format: cell-based, human. The note with it: 72 hours exposition. How it is done:
Anticancer activity of selected compounds of invention, PDI A3-inhibitors has been also tested in vitro in antiproliferative assay in normoxic and hypoxic conditions as well in estrogen-stimulated cancer cells. In the experiment, cells were seeded on 96-well plates (Sarstedt, Germany) in appropriate culture medium at a density of 10^5 cells/mL 24 h before adding the tested compounds. Cells were treated with each compound in four concentrations in the range 0.1-100 μg/mL. […] After 72 h of compound treatment at 37° C., 5% CO2 humid atmosphere and in wo different oxygen level conditions: 21%—normal and <1%—hypoxia. In some experiments the MDA-MB-231 and MCF-7 cells were seeded with or without 200 nM estradiol and after 24 h the tested compounds were added. […] Briefly, cells were fixed with 50 μL/well of 50% (w/v) trichloroacetic acid (Avantor Performance Materials, Gliwice, Poland). After 1 h incubation, plates were washed several times with tap water and 50 μL of 0.4% (w/v) solution of sulforhodamine B (Sigma-Aldrich, Germany) in 1% (v/v) acetic acid (Avantor Performance Materials, Gliwice, Poland) was added to each well. After 30 min incubation at room temperature, unbound dye was washed out with 1% (v/v) acetic acid, whereas bound dye was solubilized with 10 mM unbuffered TRIS (Avantor Performance Materials, Gliwice, Poland) solution. The entire procedure was performed using a BioTek EL-406 washing station (BioTek Instruments, USA). After additional 30 min, absorbance was read using a Biotek Hybrid H4 reader (BioTek Instruments, USA) at 540 nm wavelength. […] Absorbance was measured using a Biotek Hybrid H4 reader at 570 nm wavelength for MTT assay.
Compounds at each concentration were tested in triplicate in a single experiment and each experiment was repeated at least three times independently. Results are presented as mean IC50±SD.

In the next data set the test system is MDA-MB-231. As to the kind of experiment: MTT antiproliferative assay, 48 h, MDA-MB-231. Format: cell-based, human. Conditions: 48-hour exposition, read-out: Cytotoxicity, IC50, μM MDA-MB-231. How it is done: Anticancer activity of compounds of invention, PDI A3-inhibitors has been tested in vitro in classical antiproliferative assay in various cancer cells lines. Monolayer tumor cell lines MDA-MB-231 (human mammary breast adenocarcinoma), MCF-7 (human breast adenocarcinoma, estrogen-positive), HT-1080 (human fibrosarcoma) and Caco-2 (human colon adenocarcinoma) were cultured in standard medium DMEM (Dulbecco's modified Eagle's medium) (“Sigma”) supplemented with 10% foetal bovine serum (“Sigma”). About 2000-4000 cells per well (depending on line nature) were placed in 96-well plates and after 24 h compounds were added to the wells. Untreated cells were used as a control. The plates were incubated for 48 h, 37° C., 5% CO2. The number of surviving cells was determined using 3-(4,5-dimethylthiazol-2-yl)-2,5-diphenyltetrazolinium bromide (MTT). MTT-test: after incubating culture medium was removed and 200 μL fresh medium with 20 μL MTT (2 mg/mL in HBSS) was added in each well of the plate. After incubation (3 hr., 37° C., 5% CO2), the medium with MTT was removed and 200 μL DMSO were added at once to each sample. The samples were tested at 540 nm on Thermo Scientific Multiskan EX microplate photometer. The half-maximal inhibitory concentration (IC50) of each compound was calculated using Graph Pad Prism® 3.0.
On the technique in general: Tetrazolium dyes change colour on reduction, which living cells bring about.

Converted amounts (≈) assume the structure as drawn.

As usually defined, the IC50 is the concentration at which inhibition is half-maximal. As to `COC(=O)C1CN1S(=O)(=O)c1ccc2c(C=O)c(N(C)C)ccc2c1` (stereo not drawn) [Compound C-3390, Methyl 1-[[6-(dimethylamino)-5-formyl-2-naphthyl]sulfonyl]aziridine-2-calboxylate], the EC50 at PDI A3 turned out to be 4 µM. Moreover, in the data set on HT-29, the “IC50 [μg/ml] HT-29 normal” value was 33.6 ± 2.9 µg/mL (≈ 92.7 µM). The 50% inhibitory concentration (IC50) in the data set with MDA-MB-231 was determined as 18 ± 0.1 µM.
